# In ChEMBL document CHEMBL1129486, “(2S,4S)-2-amino-4-(4,4-diphenylbut-1-yl)- pentane-1,5-dioic acid: a potent and selective antagonist for metabotropic glutamate receptors negatively linked to adenylate cyclase” (J Med Chem, 1996):
# Key:
# [1] = biological target: Metabotropic glutamate receptor; assay: Compound was tested for its ability to displace metabotropic glutamate binding to rat brain membranes using [3H]glutamate radioligand.; format: tissue-based, Membrane
# [2] = Compound was evaluated for its ability to reverse ACPD-induced inhibition of forskolin-stimulated cAMP formation in the human mGluR2 expressing non-neuronal cells.; format: functional
SMILES,IC50 [1] [µM],IC50 [2] [µM]
N[C@@H](C[C@H](CCCC(c1ccccc1)c1ccccc1)C(=O)O)C(=O)O,4.1,18.1
N[C@@H](CC(CCCC(c1ccccc1)c1ccccc1)C(=O)O)C(=O)O (stereo not given in full),4.2,
N[C@@H](C[C@@H](CCCC(c1ccccc1)c1ccccc1)C(=O)O)C(=O)O,55.3,171
